Results reported in article PMC1660542, “Structure-based discovery of inhibitors of the YycG histidine kinase: New chemical leads to combat Staphylococcus epidermidis infections” (BMC Microbiology, 2006).
Values after ≈ are worked out from the molar mass of the structure shown. “Also recorded” adds a separate entry of the source. Read-outs that look alike come from different tables or passages of the source.

Experiments:
S. aureus ATCC29213 = assay: MIC assay (broth dilution in tubes, CLSI); assay type: cell-based, Staphylococcus aureus; conditions: for MIC: Staphylococcus aureus, S. aureus ATCC29213, read-out: Minimal inhibitory concentration (MIC)
Source text: (§1) Staphylococcus epidermidis ATCC12228 and RP62A strains were purchased from the American Type Culture Collection (ATCC, Manassas, USA). Staphylococcus aureus ATCC29213, Escherichia coli ATCC25922 and Pseudomonas aeruginosa ATCC27853 were kindly provided by Dr. Bijie Hu at Zhongshan Hospital (Shanghai, China). S. epidermidis strains se527, se886, se847, seG203, Streptococcus pyogenes strain 144, and Streptococcus mutans strain 128 were all clinical isolates from Zhongshan Hospital and Huashan Hospital (Shanghai, China). If not stated otherwise, S. epidermidis and S. aureus strains were grown at 37°C in tryptic soy broth (TSB, Oxoid) containing 0.25% glucose, E. coli and P. aeruginosa strains were grown at 37°C in Luria-Bertani (LB, Oxoid).
(§2) MIC assays for the antibacterial activities of the compounds were performed according to the broth micro-dilution (in tubes) method of the Clinical and Laboratory Standards Institute (CLSI) of America. The Minimal Bactericidal Concentration (MBC) was obtained by subculturing 100 μl from each negative (no visible bacterial growth) tube from the MIC assay, onto substance-free Mueller-Hinton agar plates. The plates were incubated at 37°C for 24 hours, and the MBC was defined as the lowest concentration of substance which produced subcultures growing no more than five colonies on each plate.

[1] = Cytotoxicity on Vero cell (MTT, Cell Proliferation Kit I); assay type: cell-based, African Green-monkey; conditions: African green monkey, Vero cells, highest concentration tested 200 μM
Experimental: (§3) Cytotoxicity of the antibacterial compounds on cultured Vero cell was measured by using the Cell Proliferation Kit I (MTT) (Roche, Indianapolis, USA) according to the manufacturer's protocol. Addition of DMSO (1%) in the medium produced a slight cytotoxicity on Vero cell, which could easily be corrected for. Each assay was performed in quadruplicate and repeated three times. The results were converted to percentage of the control (cells only treated with 1% DMSO) and CC50 (concentrations that produce a 50% cytotoxicity effect on Vero cell) was calculated by the Origin v7.0 software (OriginLab, Northampton, USA). Hemolytic activities of the compounds were determined by using healthy human erythrocytes. The erythrocytes were washed three times in sterile saline and resuspended to 5% prior to the assay. […] Cells without compound treatment and cells with 1% Triton-100 treatment were used as 0% and 100% hemolysis controls, respectively. The cell suspensions were incubated for 1 hour at 37°C and centrifuged at 1000×g for 10 min. Volumes of 100 μl supernatants were transferred to another sterile plate and hemoglobin release from the cells was determined at 570 nm. […] The hemolysis assays were repeated twice.

YycG' protein = molecular target: T1, YycG' protein (Staphylococcus epidermidis, UniProt Q8CU87); assay: Inhibition of YycG' ATPase activity / autophosphorylation (Kinase-Glo Luminescent Kinase Assay); assay type: biochemical; conditions: 3 μM ATP; for IC50: 4 μg YycG' protein, read-out: IC50 for YycG'; for inhibition at 50 µM: compound 50 μM, 4 μg protein, read-out: Inhibition of YycG' phosphorylation (decrease of ATPase activity)
T1 construct: of YycG (370aa to 610aa) was amplified by PCR; His-tag (pET28a) (N); made in house; host or cells: E. coli BL21 (pET28a, pETYycG')
T1 sequence (Q8CU87 370-610): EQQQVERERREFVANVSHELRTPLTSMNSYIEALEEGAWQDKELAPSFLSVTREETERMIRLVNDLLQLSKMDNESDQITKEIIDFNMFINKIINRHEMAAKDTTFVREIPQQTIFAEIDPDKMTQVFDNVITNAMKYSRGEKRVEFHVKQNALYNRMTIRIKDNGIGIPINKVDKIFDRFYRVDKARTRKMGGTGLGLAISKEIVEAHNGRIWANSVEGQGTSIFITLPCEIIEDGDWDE
Experimental: The inhibitory activities of the compounds for the ATPase activity of the YycG' protein was measured using the Kinase-Glo™ Luminescent Kinase Assay (Promega, Madison, USA). Briefly, 4 μg YycG' protein was pre-incubated with a series of dilution of compounds in the reaction buffer (40 mM Tris [pH 7.5], 20 mM MgCl2, and 0.1 mg/ml BSA), at 25°C for 30 min. Then 3 μM ATP was added for another incubation of 30 min at 25°C, and Kinase-Glo™ Reagent was added to detect the rest amount of ATP, as recorded from luminescence measurements (RLU). In parallel, theYycG' protein with no addition of compounds was used as the control. The rate of inhibiting protein phosphorylation (Rp) by the compounds was calculated from equation 1:
Rp=RLU(YycG^′+compound+ATP+Reagent)−RLU(YycG^′+ATP+Reagent)/RLU(ATP+Reagent)−RLU(YycG^′+ATP+Reagent)×100% (1) MathType@MTEF@5@5@+=feaafiart1ev1aaatCvAUfKttLearuWrP9MDH5MBPbIqV92AaeXatLxBI9gBaebbnrfifHhDYfgasaacH8akY=wiFfYdH8Gipec8Eeeu0xXdbba9frFj0=OqFfea0dXdd9vqai=hGuQ8kuc9pgc9s8qqaq=dirpe0xb9q8qiLsFr0=vr0=vr0dc8meaabaqaciaacaGaaeqabaqabeGadaaakeaacqqGsbGudaWgaaWcbaGaeeiCaahabeaakiabg2da9maalaaabaGaeeOuaiLaeeitaWKaeeyvauLaeiikaGIaeeywaKLaeeyEaKNaee4yamMafe4raCKbauaacqGHRaWkcqqGJbWycqqGVbWBcqqGTbqBcqqGWbaCcqqGVbWBcqqG1bqDcqqGUbGBcqqGKbazcqGHRaWkcqqGbbqqcqqGubavcqqGqbaucqGHRaWkcqqGsbGucqqGLbqzcqqGHbqycqqGNbWzcqqGLbqzcqqGUbGBcqqG0baDcqGGPaqkcqGHsislcqqGsbGucqqGmbatcqqGvbqvcqGGOaakcqqGzbqwcqqG5bqEcqqGJbWycuqGhbWrgaqbaiabgUcaRiabbgeabjabbsfaujabbcfaqjabgUcaRiabbkfasjabbwgaLjabbggaHjabbEgaNjabbwgaLjabb6gaUjabbsha0jabcMcaPaqaaiabbkfasjabbYeamjabbwfavjabcIcaOiabbgeabjabbsfaujabbcfaqjabgUcaRiabbkfasjabbwgaLjabbggaHjabbEgaNjabbwgaLjabb6gaUjabbsha0jabcMcaPiabgkHiTiabbkfasjabbYeamjabbwfavjabcIcaOiabbMfazjabbMha5jabbogaJjqbbEeahzaafaGaey4kaSIaeeyqaeKaeeivaqLaeeiuaaLaey4kaSIaeeOuaiLaeeyzauMaeeyyaeMaee4zaCMaeeyzauMaeeOBa4MaeeiDaqNaeiykaKcaaiabgEna0kabigdaXiabicdaWiabicdaWiabcwcaLiaaxMaacaWLjaWaaeWaaeaacqaIXaqmaiaawIcacaGLPaaaaaa@A46C@
IC50 (the concentration of inhibition of 50% YycG' protein autophosphorylation) was obtained by using the Origin v7.0 software (OriginLab, Northampton, USA).

[2] = Erythrocyte hemolysis assay; assay type: cell-based, human; conditions: human, erythrocytes (5% suspension), 1 hour, 37°C;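 note: compounds tested at their MIC and at 4× MIC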
Experimental: as §3

S. pyogenes 144 = assay: MIC assay (broth dilution in tubes, CLSI); assay type: cell-based, Streptococcus pyogenes; conditions: for MIC: Streptococcus pyogenes, S. pyogenes 144, read-out: Minimal inhibitory concentration (MIC)
Source text: as §1, §2

S. mutans 128 = assay: MIC assay (broth dilution in tubes, CLSI); assay type: cell-based, Streptococcus mutans; conditions: for MIC: Streptococcus mutans, S. mutans 128, read-out: Minimal inhibitory concentration (MIC)
Source text: as §1, §2

S. epidermidis ATCC12228 [3] = assay: Minimal bactericidal concentration (MBC) assay; assay type: cell-based; conditions: Staphylococcus epidermidis
Experimental: as §2

S. epidermidis RP62A [4] = assay: Minimal bactericidal concentration (MBC) assay; assay type: cell-based; conditions: Staphylococcus epidermidis
Experimental: as §2

SrrB' = assay: Inhibition of SrrB' autophosphorylation (Kinase-Glo); assay type: biochemical, S. epidermidis; conditions: compound 50 μM, 4 μg protein, 3 μM ATP
S. epidermidis RP62A [5] = assay: MIC assay (broth dilution in tubes, CLSI); assay type: cell-based; conditions: Staphylococcus epidermidis
Source text: as §1, §2

S. epidermidis ATCC12228 [6] = assay: MIC assay (broth dilution in tubes, CLSI); assay type: cell-based, Staphylococcus epidermidis; conditions: Staphylococcus epidermidis
Source text: as §1, §2

[7] = test system: S. epidermidis RP62A mature biofilm cells; assay: Killing biofilm cells of S. epidermidis (CFU count); assay type: cell-based, Staphylococcus epidermidis
Experimental: An overnight culture of S. epidermidis strain RP62A was diluted 1:100 in TSB containing 0.25% glucose, then 1 ml bacterial suspension was inoculated into the wells of sterile 12-well polystyrene microtiter plates (Falcon) incubated at 37°C for 24 h. The plates with mature biofilm were washed gently four times with sterile PBS before adding fresh TSB containing the various compounds at their MBC values, and incubated at 37°C for 24 h. The plates were washed again four times with sterile PBS, then the biofilm cells were scraped from the plate and resuspended in 1 ml PBS, and violently vortexed to disintegrate clumps of cells. Next, the suspension was diluted gradually with sterile PBS and subcultured onto substance-free Mueller-Hinton agar plates, incubated at 37°C for 24 h, and the colonies were counted. The fresh medium containing vancomycin at the MBC value and substance-free fresh medium served as the controls. The experiment was repeated three times.

[8] = at 4 × MIC (number in parenthesis)
[9] = at MIC for S. epidermidis ATCC12228
[10] = S. epidermidis RP62A, read-out: Minimal bactericidal concentration (MBC)
[11] = S. epidermidis RP62A (biofilm-forming strain), read-out: Minimal inhibitory concentration (MIC)
[12] = ATCC12228, Table 2, as tested on S. epidermidis ATCC 12228, read-out: MICs
[13] = S. epidermidis ATCC12228 (non-biofilm-forming strain), read-out: Minimal inhibitory concentration (MIC)

Row | SMILES | MIC (S. aureus ATCC29213) [µM] | CC50 [1] [µM] | IC50 (YycG' protein) [µM] | inhibition at 50 µM (YycG' protein) [%] | hemolysis at 1 h [2, 8] [%] | hemolysis at 1 h [2, 9] [%] | Inhibitory effect against Streptococcus pyogenes (S. pyogenes 144) | MIC (S. pyogenes 144) [µM] | MIC (S. mutans 128) [µM] | MBC (S. epidermidis ATCC12228 [3]) [µM] | MBC (S. epidermidis RP62A [4]; [10]) [µM] | Inhibition of SrrB' phosphorylation (SrrB') [%] | MIC (S. epidermidis RP62A [5]; [11]) [µM] | MIC (S. epidermidis ATCC12228 [6]; [12]) [µM] | MIC (S. epidermidis ATCC12228 [6]; [13]) [µM] | Inhibitory effect against S. aureus (S. aureus ATCC29213) | further results
1 | Cc1ccc(C(O)O)cc1-c1ccc(/C=N/NC(=O)c2cc3c(ccc4ccccc43)o2)o1 [Compound 4] | > 200 | > 200 | 13.5 | 76 | 0.4 | 0.1 | only active against S. pyogenes | 50 (≈ 22 µg/mL) | > 200 | 50 (≈ 22 µg/mL) | 100 | 3 | 12.5 | 12.5 | 12.5 | – | –
2 | O=C(NNC(=O)c1c(Br)c(Br)c(Br)c(Br)c1C(O)O)c1cc(Cl)ccc1O [Compound 1] | 50 (≈ 32.6 µg/mL) | > 200 | 48 | 52 | < 0.1 | < 0.1 | inhibited the growth | 200 (≈ 130 µg/mL) | > 200 | 200 (≈ 130 µg/mL) | 200 | 3 | 50 | 50 | 50 | inhibited the growth | –
3 | CN(C)[C@@H]1C(O)=C(C(N)=O)C(=O)[C@@]2(O)C(O)=C3C(=O)c4c(O)cccc4[C@@](C)(O)[C@H]3C[C@@H]12 [Tet, tetracycline, reference compound] | – | – | – | – | – | – | – | – | – | – | – | – | – | – | – | – | MIC (S. epidermidis ATCC12228 [6]; ATCC12228, conventional antibiotics used in the hemolysis assay, strain not printed at the place, read-out: MIC): 0.25 µg/mL
4 | CN[C@H](CC(C)C)C(=O)N[C@H]1C(=O)N[C@@H](CC(N)=O)C(=O)N[C@H]2C(=O)N[C@H]3C(=O)N[C@H](C(=O)N[C@H](C(=O)O)c4cc(O)cc(O)c4-c4cc3ccc4O)[C@H](O)c3ccc(c(Cl)c3)Oc3cc2cc(c3O[C@@H]2O[C@H](CO)[C@@H](O)[C@H](O)[C@H]2O[C@H]2C[C@](C)(N)[C@H](O)[C@H](C)O2)Oc2ccc(cc2Cl)[C@H]1O [Vancomycin, reference compound] | – | – | – | – | – | – | – | – | – | – | – | – | – | – | – | – | Killing of biofilm cells ([7]; concentration increased up to 128 μg/ml): no increased killing; also recorded: almost without effect; MBC (S. epidermidis RP62A [4]; RP62A): 4 µg/mL; MIC (S. epidermidis RP62A [5]; RP62A): 1 µg/mL
5 | CCOC(=O)C1=C(c2ccccc2)N=c2s/c(=C/c3ccc(-c4cccc(C(O)O)c4)o3)c(=O)n2C1c1ccc2c(c1)OCO2 (stereo not shown) [Compound 5] | 6.25 (≈ 3.89 µg/mL) | > 200 | 14 | 73 | 0.3 | 0.1 | effective | 1.56 (≈ 0.971 µg/mL) | 6.25 (≈ 3.89 µg/mL) | 25 (≈ 15.6 µg/mL) | 25 | – | 6.25 | 6.25 | 6.25 | effective | Reduction of the CFU of the biofilm cells ([7]; 24-hour-old biofilm, at MBC value, relative to untreated control): more than 100 fold; Inhibitory effect against Streptococcus mutans (S. mutans 128): effective
